Data on three compounds can be found in paper PMC4848594 (Viruses, 2016).

Data set [1] deals with T1, RHDV RdRp (Rabbit hemorrhagic disease virus-V351, UniProt P27411).
T1 construct: gene ORF1
Nature of the data set: PicoGreen dsRNA de novo polymerase assay. Format: biochemical.

Data set [2] addresses RCV RdRp. Nature of the data set: PicoGreen dsRNA de novo polymerase assay. Type of data set: biochemical, Rabbit calicivirus Australia 1 (Lagovirus europaeus GI.4). The following applies: 45 μM rGTP, 10 ng/μL poly(C), 2.5 mM MnCl2, pH 7.5, 30 °C, 10 min preincubation; non-nucleoside inhibitor.
Data set [3] has as its system Nc1nc2c(ncn2[C@@H]2O[C@H](COP(=O)(O)OP(=O)(O)OP(=O)(O)O)[C@@H](O)[C@H]2O)c(=O)[nH]1. In words: purified protein. The following applies: 20 ng/μL poly(C), 2.5 mM MnCl2, 5 mM DTT, pH 7.5, 30 °C, Michaelis-Menten fit.
Data set [4] concerns RCV RdRp. Nature of the data set: PicoGreen dsRNA assay, Michaelis-Menten model. Type of data set: biochemical, Rabbit calicivirus Australia 1 (Lagovirus europaeus GI.4). The following applies: 20 ng/μL poly(C), 2.5 mM MnCl2, 5 mM DTT, pH 7.5, 30 °C; Michaelis-Menten fit.
Data set [5] deals with NoV RdRp. In words: PicoGreen dsRNA assay, substrate inhibition model. Format: biochemical, Norovirus GII.4 (Norwalk virus, Norovirus norwalkense). The following applies: substrate inhibition constant; rGTP 0–2.0 mM, 20 ng/μL poly(C), 2.5 mM MnCl2, pH 7.5, 30 °C.
The test system of data set [6] is NoV RdRp. In words: PicoGreen dsRNA assay, Michaelis-Menten model. Type of data set: biochemical, Norovirus GII.4 (Norwalk virus, Norovirus norwalkense). The following applies: 20 ng/μL poly(C), 2.5 mM MnCl2, 5 mM DTT, pH 7.5, 30 °C; Michaelis-Menten fit.
For data set [7], the system named is RCV RdRp. In words: PicoGreen dsRNA assay, substrate inhibition model. The following applies: substrate inhibition constant; rGTP 0–2.0 mM, 20 ng/μL poly(C), 2.5 mM MnCl2, pH 7.5, 30 °C. Type of data set: biochemical, Rabbit calicivirus Australia 1 (Lagovirus europaeus GI.4).
The target in data set [8] is T1, RHDV RdRp. Nature of the data set: PicoGreen dsRNA assay, substrate inhibition model. Format: biochemical. The following applies: substrate inhibition constant; rGTP 0–2.0 mM, 20 ng/μL poly(C), 2.5 mM MnCl2, pH 7.5, 30 °C.

T1 sequence (P27411 1252-1767): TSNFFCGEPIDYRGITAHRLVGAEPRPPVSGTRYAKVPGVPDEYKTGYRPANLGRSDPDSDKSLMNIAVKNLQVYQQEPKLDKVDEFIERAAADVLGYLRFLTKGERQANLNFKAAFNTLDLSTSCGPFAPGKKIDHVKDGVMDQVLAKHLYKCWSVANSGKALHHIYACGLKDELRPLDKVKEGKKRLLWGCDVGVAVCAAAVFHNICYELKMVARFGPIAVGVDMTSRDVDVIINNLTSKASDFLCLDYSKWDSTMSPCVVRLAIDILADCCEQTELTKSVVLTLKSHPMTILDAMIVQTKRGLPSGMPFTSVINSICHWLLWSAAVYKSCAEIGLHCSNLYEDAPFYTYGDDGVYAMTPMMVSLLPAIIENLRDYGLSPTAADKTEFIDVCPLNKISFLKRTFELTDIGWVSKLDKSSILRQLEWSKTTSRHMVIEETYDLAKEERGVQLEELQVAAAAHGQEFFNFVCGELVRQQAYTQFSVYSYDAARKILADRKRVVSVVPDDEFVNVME

On to `Cc1nc(-c2ccccc2)sc1C(=O)Nc1sc2c(c1C#N)CCC2` [NIC02], for which the figures for the IC50 in data set [1] and in data set [2] were 19.9 µM and 13.5 µM, respectively.
As for “RHDV RdRp (Rabbit hemorrhagic disease virus-V351)”, the Michaelis constant (Km) in data set [3] amounted to 14.6 ± 2.4 µM.
As for `Nc1nc2c(ncn2[C@@H]2O[C@H](COP(=O)(O)OP(=O)(O)OP(=O)(O)O)[C@@H](O)[C@H]2O)c(=O)[nH]1` [rGTP], the Km in data set [4] is 5.7 ± 0.7 µM; in data set [6], 77.7 ± 14.5 µM. In addition, the “NoV RdRp” value in data set [5] is 0.6 ± 0.2 mM. Besides, the “RCV RdRp” value in data set [7] was 1.7 ± 0.2 mM. Moreover, the “RHDV RdRp” value in data set [8] is 2.1 ± 0.4 mM.

Broadly, the IC50 is the concentration that gives 50% inhibition. Usually Km stands for the substrate concentration at which the rate is half of its maximum.
